The test system of the experiment is naïve rats.

The values that follow come from patent US20090143417A1, “METHODS OF TREATING PAIN” (The University of Queensland, priority 2004, published 2009).

For `CN1CC[C@]23c4c5ccc(O)c4O[C@H]2[C@@H](O)C=C[C@H]3[C@H]1C5` [morphine], the “percent of the maximal pain relief effect” value (morphine ED20 dose 2.8 μmol/kg s.c. alone (FIG. 1)) is reported as 20%. Further, the “pain relief from a noxious thermal stimulus using the tail flick test” value (morphine single bolus 10 μmol/kg s.c., at one hour, naïve rats (FIG. 1)) is reported as “near maximal pain relief”. Further, the “ED20 of morphine (antinociception, tail flick)” value (s.c., naïve rats) is approximately 2.8 µmol/kg. Moreover, for the setting “single s.c. bolus administered alone: 2 at 0.04 nmol/kg, morphine at 2.8 μmol/kg”, the “peak levels of antinociception, % of the maximum possible effect” value was determined as 21 % NPE.
